In ChEMBL document CHEMBL5576080, “Oropouche virus - The "Newest" invisible public enemy?” (Bioorg Med Chem, 2024):
Active and inactive are the calls of the source. The rule behind the calls is not given here.

Key:
[1] = system: Oropouche virus; experiment: (§1) Inhibition of Oropouche virus N-terminal His-tagged fusion endonuclease expressed in Escherichia coli Rosetta (DE3) cells using FAM-TCT CTA GCA GTG GCG CC-TAM as DNA substrate measured every 60 secs for 60 mins by fluorescence based analysis
[2] = Cytotoxicity against African green monkey Vero cells assessed as reduction in cell viability measured after 72 hrs by MTT assay; type: toxicity, cell-based; conditions: chlorocebus sabaeus
[3] = Selectivity index, ratio of CC50 for African green monkey Vero cells to EC50 for Oropouche virus infected in Vero cells; type: toxicity, cell-based; conditions: read-out: Ratio CC50/EC50
[4] = system: Oropouche virus; experiment: Antiviral activity against Oropouche virus infected in Vero cells incubated for 1 hr and measured after 3 days by crystal violet staining based analysis; type: functional, organism-based
[5] = as §1
[6] = Inhibition of Oropouche virus N-terminal His-tagged fusion endonuclease expressed in Escherichia coli Rosetta (DE3) cells using FAM-TCT CTA GCA GTG GCG CC-TAM as DNA substrate measured every 60 secs for 60 mins by FRET assay

For Oc1cc(O)c2c(O)c3cc4ccccc4cc3nc2c1, which inhibition [1] is on record?
Its inhibition is “inactive”.

What about the CC50 at 72 h [2] of the same compound?
Its CC50 at 72 h is 1530 µM.

And the selectivity ratio [3]?
The selectivity ratio was 70.8.

And the EC50 [4]?
Its EC50 is 21.6 µM.

Which IC50 [5] does the source give for COc1cc2[nH]c3c(OC)c(OC)ccc3c(=O)c2c(OC)c1OC [CUSCULINE] here?
Its IC50 is 1.4 µM.

What about the CC50 at 72 h [2] of the same compound?
Its CC50 at 72 h is 1640 µM.

And the selectivity ratio [3]?
The selectivity ratio was 49.6.

And the EC50 [4]?
The EC50 was 33 µM.

Which CC50 at 72 h [2] does the source give for COc1cc(O)c2c(c1)oc(=O)c1c3cc(O)c(O)cc3oc21 [WEDELOLACTONE] here?
Its CC50 at 72 h is 374 µM.

What about the IC50 [6] of the same compound?
Its IC50 is 0.31 µM.

And the EC50 [4]?
The EC50 was 18.9 µM.
